# From ChEMBL document CHEMBL1944561, “Discovery and SAR exploration of a novel series of imidazo[4,5-b]pyrazin-2-ones as potent and selective mTOR kinase inhibitors” (Bioorg Med Chem Lett, 2011)
# Columns and labels:
# [1] = molecular target: T1, Interleukin-1 receptor-associated kinase 4 (Homo sapiens) (UniProt Q9NWZ3); assay: Inhibition of IRAK4 assessed as activity remaining at 10 uM
# T1 sequence (whole entry): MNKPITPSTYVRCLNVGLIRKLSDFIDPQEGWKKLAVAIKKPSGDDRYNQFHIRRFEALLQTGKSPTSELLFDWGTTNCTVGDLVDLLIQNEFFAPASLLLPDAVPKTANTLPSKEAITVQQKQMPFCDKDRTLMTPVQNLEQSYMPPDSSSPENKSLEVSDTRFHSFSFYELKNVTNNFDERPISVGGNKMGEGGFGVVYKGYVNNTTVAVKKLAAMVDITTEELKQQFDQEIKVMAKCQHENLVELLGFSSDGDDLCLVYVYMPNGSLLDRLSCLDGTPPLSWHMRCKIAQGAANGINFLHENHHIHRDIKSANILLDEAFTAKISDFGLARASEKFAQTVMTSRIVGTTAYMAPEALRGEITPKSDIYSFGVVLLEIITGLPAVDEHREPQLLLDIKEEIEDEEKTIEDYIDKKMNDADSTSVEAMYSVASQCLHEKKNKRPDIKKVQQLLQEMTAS
# [2] = molecular target: Tyrosine-protein kinase CSK (Homo sapiens) (UniProt P41240); assay: Inhibition of CSK assessed as activity remaining at 10 uM
# Sequence of Tyrosine-protein kinase CSK (Homo sapiens) (P41240 2-450 limits assumed): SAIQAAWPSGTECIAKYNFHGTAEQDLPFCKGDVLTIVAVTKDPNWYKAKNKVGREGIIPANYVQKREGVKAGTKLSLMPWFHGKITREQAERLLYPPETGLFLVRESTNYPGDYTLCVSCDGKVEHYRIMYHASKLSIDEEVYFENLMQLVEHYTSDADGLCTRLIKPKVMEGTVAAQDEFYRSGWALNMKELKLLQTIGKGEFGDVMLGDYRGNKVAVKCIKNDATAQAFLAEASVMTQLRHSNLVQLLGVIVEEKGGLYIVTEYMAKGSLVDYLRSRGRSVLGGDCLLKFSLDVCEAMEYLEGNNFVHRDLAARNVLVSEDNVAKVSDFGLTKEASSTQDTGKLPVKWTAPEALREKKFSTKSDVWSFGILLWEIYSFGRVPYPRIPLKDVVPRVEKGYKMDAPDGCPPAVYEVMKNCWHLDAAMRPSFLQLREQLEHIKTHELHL
# [3] = molecular target: Glycogen synthase kinase-3 alpha (Homo sapiens, UniProt P49840); assay: Inhibition of GSK3alpha
# Sequence of Glycogen synthase kinase-3 alpha (P49840 whole entry): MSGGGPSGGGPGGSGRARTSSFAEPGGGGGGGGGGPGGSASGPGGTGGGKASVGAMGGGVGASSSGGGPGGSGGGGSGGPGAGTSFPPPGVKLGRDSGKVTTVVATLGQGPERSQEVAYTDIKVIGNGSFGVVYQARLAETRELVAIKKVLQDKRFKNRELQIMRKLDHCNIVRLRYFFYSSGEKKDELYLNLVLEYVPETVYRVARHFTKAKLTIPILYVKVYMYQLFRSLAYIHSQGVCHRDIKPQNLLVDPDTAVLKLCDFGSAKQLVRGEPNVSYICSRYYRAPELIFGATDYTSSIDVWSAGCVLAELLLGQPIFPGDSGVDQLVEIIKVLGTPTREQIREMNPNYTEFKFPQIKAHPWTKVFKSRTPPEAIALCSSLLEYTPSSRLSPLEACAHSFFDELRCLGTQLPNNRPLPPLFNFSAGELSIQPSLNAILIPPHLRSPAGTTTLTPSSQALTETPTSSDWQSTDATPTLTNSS
# [4] = molecular target: Dual specificity mitogen-activated protein kinase kinase 1 (Homo sapiens) (UniProt Q02750); assay: Inhibition of MEK1 assessed as activity remaining at 10 uM
# Sequence of Dual specificity mitogen-activated protein kinase kinase 1 (Homo sapiens) (Q02750 whole entry, canonical isoform): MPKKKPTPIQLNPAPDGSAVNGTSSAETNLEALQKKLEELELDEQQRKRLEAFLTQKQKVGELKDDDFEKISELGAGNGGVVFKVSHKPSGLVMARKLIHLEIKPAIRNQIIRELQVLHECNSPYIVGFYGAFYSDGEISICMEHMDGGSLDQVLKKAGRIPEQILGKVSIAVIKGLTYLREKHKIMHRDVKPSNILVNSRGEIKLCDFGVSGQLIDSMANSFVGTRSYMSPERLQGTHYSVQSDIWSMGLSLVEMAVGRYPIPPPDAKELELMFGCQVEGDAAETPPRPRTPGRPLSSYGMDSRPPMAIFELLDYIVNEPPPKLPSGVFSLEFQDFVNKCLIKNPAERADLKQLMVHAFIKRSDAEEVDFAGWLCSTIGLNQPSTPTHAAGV
# [5] = molecular target: Phosphatidylinositol 4,5-bisphosphate 3-kinase catalytic subunit alpha isoform (Homo sapiens, UniProt P42336); assay: Inhibition of PI3Kalpha
# Sequence of Phosphatidylinositol 4,5-bisphosphate 3-kinase catalytic subunit alpha isoform (P42336 whole entry, canonical isoform): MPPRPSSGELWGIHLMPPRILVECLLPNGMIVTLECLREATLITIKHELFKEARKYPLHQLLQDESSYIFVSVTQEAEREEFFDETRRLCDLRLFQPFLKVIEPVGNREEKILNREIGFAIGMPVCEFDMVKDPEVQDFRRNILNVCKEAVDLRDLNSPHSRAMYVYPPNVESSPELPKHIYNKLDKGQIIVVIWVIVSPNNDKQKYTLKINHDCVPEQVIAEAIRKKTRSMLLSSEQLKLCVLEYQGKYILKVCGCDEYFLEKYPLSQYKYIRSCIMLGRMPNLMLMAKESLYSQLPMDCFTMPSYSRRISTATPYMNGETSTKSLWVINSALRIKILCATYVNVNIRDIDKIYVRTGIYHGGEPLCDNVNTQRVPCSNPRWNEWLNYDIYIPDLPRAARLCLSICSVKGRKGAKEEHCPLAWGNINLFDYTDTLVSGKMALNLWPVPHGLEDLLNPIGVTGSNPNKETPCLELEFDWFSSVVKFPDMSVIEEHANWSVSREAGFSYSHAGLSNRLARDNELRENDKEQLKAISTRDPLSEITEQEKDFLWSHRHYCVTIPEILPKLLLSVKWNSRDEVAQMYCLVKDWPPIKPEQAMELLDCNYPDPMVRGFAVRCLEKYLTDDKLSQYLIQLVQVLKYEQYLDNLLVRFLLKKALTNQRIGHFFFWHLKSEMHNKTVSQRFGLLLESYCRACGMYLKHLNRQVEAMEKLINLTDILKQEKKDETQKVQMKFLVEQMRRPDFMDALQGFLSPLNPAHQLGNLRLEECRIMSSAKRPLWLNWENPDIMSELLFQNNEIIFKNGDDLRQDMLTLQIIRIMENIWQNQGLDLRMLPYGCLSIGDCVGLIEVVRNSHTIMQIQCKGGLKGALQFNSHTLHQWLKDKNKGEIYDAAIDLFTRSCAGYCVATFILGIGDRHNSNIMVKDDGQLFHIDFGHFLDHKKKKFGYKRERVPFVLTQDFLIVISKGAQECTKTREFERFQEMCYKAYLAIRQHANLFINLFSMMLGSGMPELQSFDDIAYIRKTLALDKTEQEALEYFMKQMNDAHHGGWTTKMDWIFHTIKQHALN
# [6] = molecular target: Mitogen-activated protein kinase kinase kinase 9 (Homo sapiens) (UniProt P80192); assay: Inhibition of MLK1 assessed as activity remaining at 10 uM
# Sequence of Mitogen-activated protein kinase kinase kinase 9 (Homo sapiens) (P80192 whole entry, looked up): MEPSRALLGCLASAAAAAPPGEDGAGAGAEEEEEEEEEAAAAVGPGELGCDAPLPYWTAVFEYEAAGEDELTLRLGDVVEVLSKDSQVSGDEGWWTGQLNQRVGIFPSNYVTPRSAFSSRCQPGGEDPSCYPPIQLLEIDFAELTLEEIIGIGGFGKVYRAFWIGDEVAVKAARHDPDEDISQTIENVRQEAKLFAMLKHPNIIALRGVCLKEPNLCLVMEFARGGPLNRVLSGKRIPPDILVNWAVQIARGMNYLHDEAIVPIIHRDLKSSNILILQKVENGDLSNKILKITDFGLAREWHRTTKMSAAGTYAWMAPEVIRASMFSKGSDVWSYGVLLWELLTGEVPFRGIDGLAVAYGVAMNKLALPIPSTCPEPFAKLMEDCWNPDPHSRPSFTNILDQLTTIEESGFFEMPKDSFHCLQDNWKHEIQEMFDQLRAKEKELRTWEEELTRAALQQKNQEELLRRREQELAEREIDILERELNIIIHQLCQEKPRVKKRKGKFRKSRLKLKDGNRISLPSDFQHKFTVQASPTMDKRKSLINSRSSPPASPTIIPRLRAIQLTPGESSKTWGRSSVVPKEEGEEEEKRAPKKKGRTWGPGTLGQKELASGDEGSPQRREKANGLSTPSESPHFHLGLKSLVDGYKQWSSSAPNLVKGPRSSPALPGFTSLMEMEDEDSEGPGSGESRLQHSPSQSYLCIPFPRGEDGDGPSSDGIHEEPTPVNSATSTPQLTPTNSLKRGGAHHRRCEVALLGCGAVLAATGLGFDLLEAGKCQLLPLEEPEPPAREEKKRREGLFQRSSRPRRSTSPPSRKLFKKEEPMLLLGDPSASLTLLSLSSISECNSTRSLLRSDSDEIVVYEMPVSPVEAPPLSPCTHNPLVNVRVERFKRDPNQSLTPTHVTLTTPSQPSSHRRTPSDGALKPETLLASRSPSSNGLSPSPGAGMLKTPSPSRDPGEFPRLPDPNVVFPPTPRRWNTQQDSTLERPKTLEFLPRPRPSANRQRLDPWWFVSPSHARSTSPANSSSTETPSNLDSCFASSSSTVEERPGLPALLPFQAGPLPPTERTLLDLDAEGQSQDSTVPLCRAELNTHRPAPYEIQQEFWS
# [7] = molecular target: T2, Tyrosine-protein kinase receptor TYRO3 (Homo sapiens) (UniProt Q06418); assay: Inhibition of Rse assessed as activity remaining at 10 uM
# T2 sequence (whole entry): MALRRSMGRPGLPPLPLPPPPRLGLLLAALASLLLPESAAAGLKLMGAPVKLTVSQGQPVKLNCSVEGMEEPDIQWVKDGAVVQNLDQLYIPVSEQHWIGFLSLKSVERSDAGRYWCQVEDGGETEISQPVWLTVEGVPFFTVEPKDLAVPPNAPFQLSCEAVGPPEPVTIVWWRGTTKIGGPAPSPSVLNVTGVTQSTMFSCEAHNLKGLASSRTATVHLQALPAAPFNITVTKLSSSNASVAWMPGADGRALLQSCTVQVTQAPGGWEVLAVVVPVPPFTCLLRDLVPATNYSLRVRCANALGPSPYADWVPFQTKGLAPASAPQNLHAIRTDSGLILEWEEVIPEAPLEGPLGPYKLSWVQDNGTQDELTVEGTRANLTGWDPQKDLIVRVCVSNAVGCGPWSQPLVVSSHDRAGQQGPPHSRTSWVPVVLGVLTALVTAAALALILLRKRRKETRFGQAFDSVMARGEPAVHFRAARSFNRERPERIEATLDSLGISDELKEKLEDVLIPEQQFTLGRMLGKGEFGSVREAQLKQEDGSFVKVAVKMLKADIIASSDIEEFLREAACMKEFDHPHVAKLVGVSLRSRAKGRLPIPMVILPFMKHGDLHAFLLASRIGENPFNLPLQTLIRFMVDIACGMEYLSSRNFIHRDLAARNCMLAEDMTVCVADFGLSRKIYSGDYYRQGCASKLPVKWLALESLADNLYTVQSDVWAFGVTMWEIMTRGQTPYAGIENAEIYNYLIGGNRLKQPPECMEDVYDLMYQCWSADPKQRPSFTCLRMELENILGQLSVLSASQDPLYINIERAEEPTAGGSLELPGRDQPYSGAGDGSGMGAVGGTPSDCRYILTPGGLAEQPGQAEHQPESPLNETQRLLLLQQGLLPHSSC
# [8] = Metabolic stability in rat hepatocytes assessed as compound remaining after 60 mins; assay type: ADME, cell-based, Hepatocyte; conditions: read-out: Stability
# [9] = molecular target: Tyrosine-protein kinase JAK2 (Homo sapiens) (UniProt O60674); assay: Inhibition of JAK2 assessed as activity remaining at 10 uM
# [10] = molecular target: Tyrosine-protein kinase Lck (Homo sapiens) (UniProt P06239); assay: Inhibition of Lck assessed as activity remaining at 10 uM
# Sequence of Tyrosine-protein kinase Lck (Homo sapiens) (P06239 2-509 limits assumed): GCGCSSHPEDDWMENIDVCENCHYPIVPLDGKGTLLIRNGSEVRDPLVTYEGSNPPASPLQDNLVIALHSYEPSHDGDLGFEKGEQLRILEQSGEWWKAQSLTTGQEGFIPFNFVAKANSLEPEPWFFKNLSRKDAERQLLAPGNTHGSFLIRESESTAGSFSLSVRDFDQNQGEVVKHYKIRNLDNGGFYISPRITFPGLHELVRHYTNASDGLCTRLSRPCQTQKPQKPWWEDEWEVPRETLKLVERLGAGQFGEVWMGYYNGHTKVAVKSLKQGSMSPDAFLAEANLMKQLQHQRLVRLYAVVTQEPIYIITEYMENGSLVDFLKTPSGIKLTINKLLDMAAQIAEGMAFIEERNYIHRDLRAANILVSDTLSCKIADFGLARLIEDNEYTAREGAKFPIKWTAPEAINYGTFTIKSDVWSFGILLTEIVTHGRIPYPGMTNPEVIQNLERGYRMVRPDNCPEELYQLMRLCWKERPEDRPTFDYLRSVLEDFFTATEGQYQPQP
# [11] = molecular target: Serine/threonine-protein kinase D2 (Homo sapiens) (UniProt Q9BZL6); assay: Inhibition of PKD2 assessed as activity remaining at 10 uM
# [12] = molecular target: Serine/threonine-protein kinase PLK1 (Homo sapiens) (UniProt P53350); assay: Inhibition of Plk1 assessed as activity remaining at 10 uM
# [13] = molecular target: MAP kinase-activated protein kinase 3 (Homo sapiens) (UniProt Q16644); assay: Inhibition of MAPKAP-K3 assessed as activity remaining at 10 uM
# Sequence of MAP kinase-activated protein kinase 3 (Homo sapiens) (Q16644 whole entry, looked up): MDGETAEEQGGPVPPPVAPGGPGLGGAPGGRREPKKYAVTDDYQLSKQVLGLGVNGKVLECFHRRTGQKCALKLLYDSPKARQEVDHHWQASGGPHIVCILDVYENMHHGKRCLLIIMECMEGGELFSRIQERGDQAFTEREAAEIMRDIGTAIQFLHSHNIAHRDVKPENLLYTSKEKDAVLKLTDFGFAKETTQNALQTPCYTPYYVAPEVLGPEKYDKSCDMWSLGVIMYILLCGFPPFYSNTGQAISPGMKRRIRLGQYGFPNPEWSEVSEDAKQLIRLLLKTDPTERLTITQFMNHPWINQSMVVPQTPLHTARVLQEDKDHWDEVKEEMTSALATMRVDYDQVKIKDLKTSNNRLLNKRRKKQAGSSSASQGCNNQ
# [14] = molecular target: Tyrosine-protein kinase ZAP-70 (Homo sapiens) (UniProt P43403); assay: Inhibition of ZAP70 assessed as activity remaining at 10 uM
# Sequence of Tyrosine-protein kinase ZAP-70 (Homo sapiens) (P43403 whole entry): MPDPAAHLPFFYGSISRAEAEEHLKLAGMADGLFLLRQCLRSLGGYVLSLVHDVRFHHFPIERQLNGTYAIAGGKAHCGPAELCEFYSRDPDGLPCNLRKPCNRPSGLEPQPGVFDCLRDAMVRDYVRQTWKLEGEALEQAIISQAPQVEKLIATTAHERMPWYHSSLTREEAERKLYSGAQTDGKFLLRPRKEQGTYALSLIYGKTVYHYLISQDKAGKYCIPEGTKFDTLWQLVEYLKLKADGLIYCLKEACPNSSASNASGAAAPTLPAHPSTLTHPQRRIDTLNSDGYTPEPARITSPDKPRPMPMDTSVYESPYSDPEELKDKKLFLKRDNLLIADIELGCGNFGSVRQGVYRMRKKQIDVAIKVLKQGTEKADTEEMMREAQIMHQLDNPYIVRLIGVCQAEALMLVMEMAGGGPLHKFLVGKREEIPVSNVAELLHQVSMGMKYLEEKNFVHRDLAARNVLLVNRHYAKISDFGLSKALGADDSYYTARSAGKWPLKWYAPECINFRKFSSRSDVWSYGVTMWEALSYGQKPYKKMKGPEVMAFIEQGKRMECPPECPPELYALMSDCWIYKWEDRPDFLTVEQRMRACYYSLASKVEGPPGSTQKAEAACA
# [15] = molecular target: Serine/threonine-protein kinase mTOR (Homo sapiens, UniProt P42345); assay: Inhibition of mTOR assessed as activity remaining at 10 uM
# [16] = molecular target: Macrophage-stimulating protein receptor (Homo sapiens) (UniProt Q04912); assay: Inhibition of Ron assessed as activity remaining at 10 uM
# [17] = molecular target: Tyrosine-protein kinase Lyn (Homo sapiens) (UniProt P07948); assay: Inhibition of LYN-A assessed as activity remaining at 10 uM
SMILES,Activity [1] [%],Activity [2] [%],IC50 [3] [nM],Activity [4] [%],IC50 [5] [nM],Activity [6] [%],Activity [7] [%],remaining at 1 h [8] [%],Activity [9] [%],Activity [10] [%],Activity [11] [%],Activity [12] [%],Activity [13] [%],Activity [14] [%],Activity [15] [%],Activity [16] [%],Activity [17] [%]
O=c1[nH]c2ncc(-c3ccc4[nH]cnc4c3)nc2n1CC1CCCCC1,112,90,990,79,20100,49,88,–,–,–,–,–,–,–,–,–,–
CC(C)(O)c1ccc(-c2cnc3[nH]c(=O)n(CC4CCCCC4)c3n2)cc1,87,86,600,82,21900,80,74,65,–,–,–,–,–,–,–,–,–
O=c1[nH]c2ncc(-c3ccc(-c4nc[nH]n4)cc3)nc2n1CC1CCOCC1,97,96,–,84,2600,86,86,–,98,86,94,95,94,99,0,95,96
